Results as given in patent publication US20120157464A1, “USE OF AZABICYCLOALKYL DERIVATIVES OR PYRROLIDINE-2-ONE DERIVATIVES FOR THE TREATMENT OR PREVENTION OF ATAXIA” (NOVARTIS AG, priority 2009, published 2012).

What was measured:
[1] = tested on: patients with FRDA; details: two patients with FRDA, varenicline p.o. 0.5 mg/kg per day; cited from earlier work
[2] = tested on: patients with SCA3/SCA14; details: two patients with SCA3/SCA14, varenicline p.o. 0.5 mg/kg per day; cited from earlier work
[3] = clinical use in humans; cited from earlier work
[4] = target: T1, human α7-nAChR (Homo sapiens, UniProt P36544); assay: functional calcium (FLIPR) assay in GH3 cells recombinantly expressing human α7-nAChR; assay type: cell-based; details: for EC50: GH3 cells expressing human α7-nAChR, calcium FLIPR, read-out: α7-nAChR activity Potency EC50
T1 construct: expressed in transfected cells; host or cells: GH3 cells
Experimental: Assay. To assess a7-nAChR activity, a functional assay was employed using GH3 cells that recombinantly expressed human α7-nAChR, 5×10^4 cells per well were seeded 72 h prior to the experiment on black 96-well plates (Costar) and incubated at 37° C. in a humidified atmosphere (5% CO2/95% air). On the day of the experiment, medium was removed by flicking the plates and replaced with 100 μl growth medium containing […] Fluo-4, (Molecular Probes) in the presence of 2.5 mM probenecid (Sigma). The cells were incubated at 37° C. in a humidified atmosphere (5% CO2/95% air) for 1 h. Plates were flicked to remove excess of Fluo-4, washed twice with Hepes-buffered salt solution (in mM: NaCl 130, KCl 5.4 CaCl2 2, MgSO4 0.8, NaH2PO4 0.9, glucose 25, Hepes 20, pH 7.4; HBS) and refilled with 100 μl of HBS containing antagonist when appropriate. The incubation in the presence of the antagonist lasted 3-5 minutes. Plates were placed in the cell plate stage of a FLIPR device (fluorescent imaging plate reader, Molecular Devices, Sunnyvale, Calif., USA).
After recording of the baseline (laser: excitation 488 nm at 1 W, CCD camera opening of 0.4 seconds) the agonists (50 μl) were added to the cell plate using the FLIPR 96-tip pipettor while simultaneously recording the fluorescence, Calcium kinetic data were normalized to the maximal fitted response induced by epibatidine, which is a full agonist at α7-nAChR, Four parameter Hill equations were fitted to the concentration-response. Values of Emax (maximal effect in % compared to the epibatidine response) and EC50 (concentration producing half the maximal effect in μM) were derived from this fit.
(§1) Assay described in: D Feuerbach et al, Neuropharmacology (2005), 48, 215-227. To assess the activity of the compound of the invention on the human neuronal nAChR α4β2, a similar functional assay is carried out using a human epithelial cell line stably expressing the human α4β2 subtype (Michelmore et al., Naunyn-Schmiedeberg's Arch. Pharmacol. (2002) 366, 235),

[5] = target: T2, human neuronal nAChR α4β2 (Homo sapiens, UniProt P17787+P43681); assay: similar functional assay in a human epithelial cell line stably expressing the human α4β2 subtype; assay type: cell-based
T2 construct: expressed in transfected cells
Experimental: as §1

[6] = Oral bioavailability and brain penetration in mice; assay type: in vivo; details: 30 μmol/kg p.o.; for concentration at 0.25 h / concentration at 0.5 h / concentration at 1 h / concentration at 2 h / concentration at 4 h / concentration at 8 h: plasma
Experimental: Assay: Compounds were orally (30 μmol/kg) administered. Male mice (30-35 g, OF1/ICstrain) were sacrificed at indicated time points after oral administration. Trunk-blood was collected in EDTA-containing tubes and the brain was removed and immediately frozen on dry ice. To 100 μl plasma 10 μl internal standard (1.0 μmol of a compound with solubility and ionization properties similar to test compounds) was added and extracted three times with 500 μl dichloromethane. The combined extracts were then dried under a stream of nitrogen and re-dissolved in 100 μl acetonitrile/water (70% acetonitrile). Brains were weighed and homogenized in water (1:5 w/v). Two 100 μl aliquots of each homogenate 4-10 μl of internal standard (same standard as used for the plasma samples) were extracted three times with 500 μl dichlorornethane and further processed as the plasma samples. Samples were separated on Beckmann high-performance liquid chromatography equipment system with an autosampler (Gilson 233XL).
The limit of detection (LOD), defined as the lowest concentration of the extracted standard sample with a signal to noise ratio of ˜3.

[7] = tested on: FRDA; details: cited from earlier work
[8] = tested on: mice; assay: Social Recognition Test in mice; assay type: in vivo; details: oral, familiar partner at 24 h vs time 0
Experimental: Assay: Social interactions between two experimental animals are influenced by their degree of familiarity: the better they know each other, the less time they spend on mutual scrutiny at each meeting. […] Memory enhancing agents (i.e. oxiracetam) facilitate learning to the extent that the previously met (familiar) partner is still remembered after 24 h, whereas in vehicle treated control animals the memory usually fades after less than 1 hour (Thor and Holloway, 1982) or after 2-3 hours.
Baseline-test: Pairs consisting of one adult and one young mouse were assigned at random to the experimental and control groups. In each pair only the adult mouse was orally treated 1 hour before the trial with either vehicle or the test compound. The duration of active contacts of the adult mouse with the young mouse was manually recorded over a period of 3 min, including the following behavioural, approach-related items: sniffing, nosing, grooming, licking, pawing and playing, anogenital exploration and orientation toward the young mouse; orientation, thereby, was defined as tip of nose of the adult mouse less than approximately 1 cm distant from the young mouse's body. […]

[9] = male, OF1/IC, mouse, brain, po, 30 umol/kg, 0.25 hour, read-out: Ratio Brain/plasma
[10] = male, OF1/IC, mouse, brain, po, 30 umol/kg, 0.5 hour, read-out: Ratio Brain/plasma
[11] = male, OF1/IC, mouse, brain, po, 30 umol/kg, 1 hour, read-out: Ratio Brain/plasma
[12] = male, OF1/IC, mouse, brain, po, 30 umol/kg, 2 hour, read-out: Ratio Brain/plasma
[13] = male, OF1/IC, mouse, brain, po, 30 umol/kg, 4 hour, read-out: Ratio Brain/plasma
[14] = male, OF1/IC, mouse, brain, po, 30 umol/kg, 8 hour, read-out: Ratio Brain/plasma
[15] = male, OF1/IC, mouse, po, 0.25 hour
[16] = male, OF1/IC, mouse, po, 0.5 hour
[17] = male, OF1/IC, mouse, po, 1 hour
[18] = male, OF1/IC, mouse, po, 2 hour
[19] = male, OF1/IC, mouse, po, 4 hour
[20] = male, OF1/IC, mouse, po, 8 hour

T2 sequence (P43681 29-627 limits assumed): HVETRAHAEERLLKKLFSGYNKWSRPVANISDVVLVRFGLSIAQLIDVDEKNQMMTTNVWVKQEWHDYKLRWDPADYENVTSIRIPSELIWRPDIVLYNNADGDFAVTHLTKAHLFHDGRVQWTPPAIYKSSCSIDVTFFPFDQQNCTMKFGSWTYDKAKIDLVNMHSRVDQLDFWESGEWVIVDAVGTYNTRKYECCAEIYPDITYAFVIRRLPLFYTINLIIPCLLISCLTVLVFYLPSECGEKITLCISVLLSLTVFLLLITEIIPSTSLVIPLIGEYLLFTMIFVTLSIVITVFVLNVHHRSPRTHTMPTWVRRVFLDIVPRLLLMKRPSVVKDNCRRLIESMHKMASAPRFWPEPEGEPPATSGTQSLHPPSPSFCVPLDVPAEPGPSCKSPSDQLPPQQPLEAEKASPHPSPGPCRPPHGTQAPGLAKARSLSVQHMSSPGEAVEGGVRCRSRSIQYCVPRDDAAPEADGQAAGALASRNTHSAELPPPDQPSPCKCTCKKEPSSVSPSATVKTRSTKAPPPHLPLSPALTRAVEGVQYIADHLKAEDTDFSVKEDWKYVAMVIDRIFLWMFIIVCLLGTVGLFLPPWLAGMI
T2 sequence (P17787 26-502): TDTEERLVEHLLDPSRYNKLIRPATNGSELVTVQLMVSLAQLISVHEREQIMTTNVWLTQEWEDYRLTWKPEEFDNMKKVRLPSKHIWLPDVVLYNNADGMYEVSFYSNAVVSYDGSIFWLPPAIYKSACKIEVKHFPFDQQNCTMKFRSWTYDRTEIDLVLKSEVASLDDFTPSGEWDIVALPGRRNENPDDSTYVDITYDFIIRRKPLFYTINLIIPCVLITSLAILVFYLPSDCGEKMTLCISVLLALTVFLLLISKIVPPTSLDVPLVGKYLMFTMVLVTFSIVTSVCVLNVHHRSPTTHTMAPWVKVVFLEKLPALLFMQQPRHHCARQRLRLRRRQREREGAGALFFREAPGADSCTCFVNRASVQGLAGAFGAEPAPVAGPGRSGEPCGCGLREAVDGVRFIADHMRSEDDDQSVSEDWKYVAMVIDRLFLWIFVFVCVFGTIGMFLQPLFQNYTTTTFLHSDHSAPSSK
T1 sequence (P36544 23-502): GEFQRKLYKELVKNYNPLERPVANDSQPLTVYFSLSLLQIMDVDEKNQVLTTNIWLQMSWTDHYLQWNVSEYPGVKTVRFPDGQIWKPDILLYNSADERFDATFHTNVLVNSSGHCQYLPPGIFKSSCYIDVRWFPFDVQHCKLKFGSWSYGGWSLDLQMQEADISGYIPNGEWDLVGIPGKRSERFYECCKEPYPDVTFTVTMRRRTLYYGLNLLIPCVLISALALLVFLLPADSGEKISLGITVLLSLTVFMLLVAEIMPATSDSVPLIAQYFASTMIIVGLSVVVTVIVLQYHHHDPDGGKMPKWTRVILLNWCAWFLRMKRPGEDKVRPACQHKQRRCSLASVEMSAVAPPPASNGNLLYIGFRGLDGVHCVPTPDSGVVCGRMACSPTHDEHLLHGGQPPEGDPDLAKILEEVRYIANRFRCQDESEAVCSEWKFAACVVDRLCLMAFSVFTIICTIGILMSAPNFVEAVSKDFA

| SMILES | EC50 [4] | EC50 [5] | IC50 [5] | Brain ([6]; 0.25 hour) | Brain ([6]; 0.5 hour) | Brain ([6]; 1 hour) | Brain ([6]; 2 hour) | Brain ([6]; 4 hour) | Brain ([6]; 8 hour) | Kp at 0.25 h [6, 9] | Kp at 0.5 h [6, 10] | Kp at 1 h [6, 11] | Kp at 2 h [6, 12] | Kp at 4 h [6, 13] | Kp at 8 h [6, 14] | concentration at 0.25 h [6, 15] | concentration at 0.5 h [6, 16] | concentration at 1 h [6, 17] | concentration at 2 h [6, 18] | concentration at 4 h [6, 19] | further results |
| --- | --- | --- | --- | --- | --- | --- | --- | --- | --- | --- | --- | --- | --- | --- | --- | --- | --- | --- | --- | --- | --- |
| c1cnc2cc3c(cc2n1)C1CNCC3C1 [varenicline, 7,8,9,10-tetrahydro-6,10-methano-6H-pyrazino-(2,3-h)(3)-benzazepine] | – | – | – | – | – | – | – | – | – | – | – | – | – | – | – | – | – | – | – | – | ataxia improvements in patients [1]: showed improvements; ataxia improvements in patients [2]: showed improvements; adverse effects reported during clinical use [3]: nausea, sleep disturbance, constipation, vivid dreams, flatulence and vomiting |
| c1cc2cc(-c3cnc(O[C@H]4CCN5CCC[C@@H]4C5)nc3)ccc2[nH]1 [Compound C-1, (4S,5R)-4-[5-(1H-indol-5-yl)-pyrimidin-2-yloxy]-1-aza-bicyclo[3.3.1]nonane] | 0.024 µM | > 100 µM | 9.33 µM | 620 ± 221 pmoles/g ± SD | 1405 ± 539 pmoles/g ± SD | 1458 ± 189 pmoles/g ± SD | 1478 ± 259 pmoles/g ± SD | 842 ± 187 pmoles/g ± SD | 362 ± 62 pmoles/g ± SD | 0.39 | 0.41 | 1.17 | 1.69 | 1.11 | 1.51 | 1600 ± 758 nM | 3410 ± 956 nM | 1240 ± 583 nM | 875 ± 261 nM | 762 ± 159 nM | concentration at 8 h [6, 20]: 239 ± 27 nM |
| COC1=C(OC)C(=O)C(CCCCCCCCCCO)=C(C)C1=O [idebenone] | – | – | – | – | – | – | – | – | – | – | – | – | – | – | – | – | – | – | – | – | effects in clinical trials for FRDA [7]: showed effects in clinical trials |
| Cc1c(O)c(=O)ccn1C [deferiprone] | – | – | – | – | – | – | – | – | – | – | – | – | – | – | – | – | – | – | – | – | effects in clinical trials for FRDA [7]: showed effects in clinical trials |
| C[C@H]1[C@H](Oc2ccc(-c3ccc4[nH]ccc4c3)nn2)C2CCN1CC2 [Compound B-13, (2S,3R)-3-[6-(1H-indol-5-yl)-pyridazin-3-yloxy]-2-methyl-1-aza-bicyclo[2.2.2]octane] | 0.013 µM | > 100 µM | 4.22 µM | 1884 ± 291 pmoles/g ± SD | 2960 ± 706 pmoles/g ± SD | 2940 ± 335 pmoles/g ± SD | 1260 ± 172 pmoles/g ± SD | 379 ± 134 pmoles/g ± SD | 93 ± 30 pmoles/g ± SD | 0.86 | 1.31 | 1.89 | 1.07 | 0.88 | 1.17 | 2200 ± 397 nM | 2260 ± 419 nM | 1550 ± 523 nM | 1170 ± 252 nM | 429 ± 167 nM | Brain ([6]; 24 hour): 13 ± 4 pmoles/g ± SD; concentration at 8 h [6, 20]: 80 ± 23 nM; Reduction in time scrutinizing in % ± SEM at 24 h ([8]; dose 0.3 mg/kg): 37 ± 7 % ± SEM |
| C[C@H](OC(=O)N[C@@H]1CN2CCC1CC2)c1ccccc1F [Compound A-1, (S)-(1-aza-bicyclo[2.2.2]oct-3-yl)-carbamic acid S-1-(2-fluoro-phenyl)ethylester] | – | – | 23.4 µM | – | 706.3 ± 153.4 pmoles/g ± SD | 573.7 ± 109.3 pmoles/g ± SD | 191.9 ± 34.9 pmoles/g ± SD | 104.6 ± 39.6 pmoles/g ± SD | – | – | 1.1 | 0.8 | 1.1 | 1.2 | – | – | – | – | – | – | α7-nAChR activity Efficacy compared to epibatidine (100%) ([4]; Emax, maximal effect in % compared to the epibatidine response): 83%; Plasma ([6]; 0.5 hour): 634.9 ± 261.3 pmoles/ml ± SD; Plasma ([6]; 1 hour): 684.7 ± 339.6 pmoles/ml ± SD; Plasma ([6]; 2 hour): 168.2 ± 91.3 pmoles/ml ± SD; Plasma ([6]; 4 hour): 85.0 ± 54.3 pmoles/ml ± SD; Brain ([6]; 6 hour): 40.5 ± 12.1 pmoles/g ± SD; Plasma ([6]; 6 hour): 29.5 ± 13.8 pmoles/ml ± SD; Brain ([6]; 24 hour): 9.1 ± 2.7 pmoles/g ± SD; Plasma ([6]; 24 hour): 3.8 ± 0.6 pmoles/ml ± SD; Kp at 6 h ([6]; male, OF1/IC, mouse, brain, po, 30 umol/kg, 6 hour, read-out: Ratio Brain/plasma): 1.4; Kp at 24 h ([6]; male, OF1/IC, mouse, brain, po, 30 umol/kg, 24 hour, read-out: Ratio Brain/plasma): 2.4; Reduction in time scrutinizing in % ± SEM at 24 h ([8]; dose 3 mg/kg): 52 ± 4 % ± SEM |
